Measurements: patent US11246818B2, “Peptides and compositions for use in cosmetics” (LIPOTRUE, S.L., priority 2017, dated 2022)

Legend:
[1] = DPPH free radical scavenging assay in tubo; assay type: biochemical
Excerpt: The capacity to scavenge the stable DPPH free radical can be expressed as a measure of antioxidant activity.
During this assay, the purple chromogen (DPPH) radical was reduced by antioxidant/reducing compounds to the corresponding pale-yellow hydrazine. The reduction of the purple chromogen radical by hydrogen-donating antioxidants was monitored by the decrease of optical density at long wavelengths (515-520 nm).
Ascorbic acid was also included in the assay as positive control for scavenger activity evaluation at 30 μM and 60 μM. After 30 minutes of incubation at room temperature and gentle shaking, the absorbance at 520 nm of each well was determined using the microplate reader Multiskan FC (Thermo Fisher Scientific, MA, USA), being directly proportional to the amount of DPPH left (not-scavenged) in the reaction mixture. Absorbance values were normalized on the basis of the control (non-treated wells) which was stablished as 100%, obtaining the corresponding percentage of activity for each of the treatments.

[2] = tested on: Primary human epidermal melanocytes; experiment: Brightening activity: intracellular melanin content; assay type: cell-based; conditions: 7 days; for decrease in melanin content compared with positive reference control (kojic acid): 70 μM kojic acid
Experimental: Two concentrations of kojic acid were used as positive control.
(§1) Kojic acid was used as positive control.
Primary human epidermal melanocytes were incubated in 6-well plates for 4 days and then treated with the compounds to be analysed (Ac-SEQ ID NO: 1-NH2, Ac-SEQ ID NO: 2-NH2, Ac-SEQ ID NO: 3-NH2 or Ferulic acid-SEQ ID NO: 2-NH2) for 7 days. After treatment, cells were homogenized an intracellular melanin content was quantified by absorbance at 450 nm by Multiskan FC (Thermo Fisher Scientific, MA, USA).

[3] = Trolox Equivalent Antioxidant Capacity (TEAC), ABTS Decolorization Assay; assay type: biochemical
Experimental: As positive controls of the assay, ascorbic acid 2-glucoside (hereinafter, AA-2G) and magnesium ascorbyl phosphate (hereinafter, MAP) were tested.
TEAC assay was used in this case. Said assay measures the antioxidant capacity of a given substance, as compared to the standard, Trolox, an analogue of Vitamin E.
Antioxidant capacity was measured using the ABTS Decolorization Assay. In this assay, the pre-formed radical monocation of 2,2′-azinobis-(3-ethylbenzothiazoline-6-sulfonic acid) (ABTS*+) was generated by oxidation of ABTS with potassium persulfate and was reduced in the presence of antioxidants (Ac-SEQ ID NO: 1-NH2, Ac-SEQ ID NO: 2-NH2, Ac-SEQ ID NO: 3-NH2 or Ferulic acid-SEQ ID NO: 2-NH2). The ABTS.+ has a blue-green color, with maximum absorptions at 650, 734 and 820 nm. Antioxidants in the sample reduce ABTS.+ suppressing this color production to a degree that is proportional to their concentrations and antioxidant capacity. Quantification of absorbance was conducted at 734 nm using a Polarstar Omega equipment (BMG Labtech).

HEMn cells [4] = experiment: Gene expression of melanogenic pathways, HEMn cells, 11-day treatment (RTqPCR); assay type: cell-based, human
Excerpt: Changes in gene expression levels are represented as a positive or negative fold-change with regard to the basal control (untreated cells). For FIG. 16(A), bars from top to bottom in the y-axis refer to: COX-1 (Cyclooxigenase-1), MITF ([…]), MC1R (Melanocortin-1 receptor), MLAN-A (Melanoma antigen recognized by T-cells), C-KIT (Protoongogen receptor tyrosine kinase KIT), PMEL17 (Pre-melanosome protein), DCT-TYRP2 (Dopachrome tautomerase), TYRP-1 (Tyrosinase related protein 1) and TYR (Tyrosinase). For FIG. 16(B), bars from top to bottom in the y-axis refer to: BLOC-1 (Biogenesis of lysosome-related organelles complex-1), MITF ([…]), MC1R (Melanocortin-1 receptor), MLAN-A (Melanoma antigen recognized by T-cells), C-KIT (Protoongogen receptor tyrosine kinase KIT), PMEL17 (Pre-melanosome protein), DCT-TYRP2 (Dopachrome tautomerase), TYRP-1 (Tyrosinase related protein 1) and TYR (Tyrosinase). The x-axis refers to fold change versus basal control.
Changes in gene expression levels are represented as a positive or negative fold-change with regard to the basal control (untreated cells). Bars from top to bottom in the y-axis refer to: VDR (Vitamin D receptor), PMEL17 (Pre-melanosome protein) and DCT-TYRP2 (Dopachrome tautomerase). The x-axis refers to fold change versus basal control.
In the case of HEMn cells, cells were left in culture for 12 days (from day 0 to day 11, 11-day treatment) at standard culture conditions (37° C., 95% humidity, 5% CO2) and treated with non-cytotoxic concentrations of Ac-SEQ ID NO: 3-NH2 (0.1 mg/mL) or Ferulic acid-SEQ ID NO: 2-NH2 (0.05 mg/mL) from day 4 to day 11.
(§2) Untreated cells were used as basal control. Cells were then lysed for RNA extraction with a RNA purification commercial kit following manufacturer instructions (RNeasy mini kit, Qiagen, Netherlands). RNA was then quantified by nanodrop, adjusted in concentration and processed for retrotranscription to cDNA using a commercially available kit (High-Capacity cDNA Reverse Transcription kit—Thermofisher Scientific, USA). Resulting cDNA was used to perform a RTqPCR (Real Time Quantitative Polymerase Chain Reaction) using Taqman technology and a panel of probes designed to target specific genes related to melanogenesis and HEMn-HEKa and HEMn-HDFa communication.

[5] = tested on: recombinant mushroom tyrosinase; experiment: Mushroom tyrosinase activity in tubo (L-DOPA); assay type: biochemical
Experimental: as §1, §1
After 2 hours' reaction at room temperature, the absorbance at 450 nm of each well was determined using the microplate reader Multiskan FC (Thermo Fisher Scientific, MA, USA), which is directly proportional to the amount of dopachrome in the reaction mixture.

HEKa cells = experiment: Gene expression of HEMn-HEKa communication and melanogenic factors, HEKa cells, 24-hour treatment (RTqPCR); assay type: cell-based, human
Excerpt: (§3) Changes in gene expression levels are represented as a positive or negative fold-change with regard to the basal control (untreated cells). Bars from top to bottom in the y-axis refer to: KITLG (KIT ligand), TP53 (Tumor protein p53), DKK1 (Dickkopf-related protein 1) and NGF (Nerve growth factor). The x-axis refers to fold change verus basal control.
as §3, with “POMC (Pro-opiomelanocortin), EDN1 (Endothelin-1)” for “TP53 (Tumor protein p53), DKK1 (Dickkopf-related protein 1)”, “versus” for “verus”
Briefly, HEKa cells were seeded in duplicate in 6-well plates at a density of 4×10^5 cells/well and maintained at standard culture conditions (37° C., 95% humidity, 5% CO2) for 24 hours. Then, cells were treated with non-cytotoxic concentrations of Ac-SEQ ID NO: 3-NH2 (0.1 mg/mL) or Ferulic acid-SEQ ID NO: 2-NH2 (0.05 mg/mL) for an additional 24 hours.
as §2

HEMn cells [6] = experiment: Gene expression of melanogenic pathways, HEMn cells, 24-hour treatment (RTqPCR); assay type: cell-based, human; conditions: 0.1 mg/mL, treatment at 24 h
Excerpt: Changes in gene expression levels are represented as a positive or negative fold-change with regard to the basal control (untreated cells). For FIG. 16(A), bars from top to bottom in the y-axis refer to: COX-1 (Cyclooxigenase-1), MITF ([…]), MC1R (Melanocortin-1 receptor), MLAN-A (Melanoma antigen recognized by T-cells), C-KIT (Protoongogen receptor tyrosine kinase KIT), PMEL17 (Pre-melanosome protein), DCT-TYRP2 (Dopachrome tautomerase), TYRP-1 (Tyrosinase related protein 1) and TYR (Tyrosinase). […]
as §2, with “Cells were then lysed for RNA extraction with a RNA purification commercial kit following manufacturer instructions (RNeasy mini kit, Qiagen, Netherlands).” left out

Molecule: O=C1O[C@H]([C@@H](O)CO)C(O)=C1O [ascorbic acid, reference compound]
- reduction of DPPH ([1]; 30 μM, positive control): 31.3%
- reduction of DPPH ([1]; 60 μM, positive control): 67.6%

Molecule: Ac-His-Trp-Phe-Lys-NH2 (Ac-HWFK-NH2) [Ac-SEQ ID NO: 2-NH2]
- brightening or whitening activity compared with kojic acid ([2]; all the concentrations tested (0.01, 0.05, 0.1 mg/ml), kojic acid 10 and 50 μM): significantly higher brightening or whitening activity
- increased brightening activity relative to the activity of the two concentrations of kojic acid ([2]; all the concentrations tested, kojic acid 10 and 50 μM): two to more than four times
- trolox equivalents ([3]; 0.05 mg/mL): 22 µM
- trolox equivalents ([3]; 0.1 mg/mL): 49 µM
- trolox equivalents ([3]; 0.5 mg/mL): 130 µM
- antioxidant power compared with AA-2G and MAP ([3]; the higher concentration tested (0.5 mg/mL)): higher antioxidant power than AA-2G and MAP

Molecule: Ferulic acid-His-Trp-Phe-Lys-NH2 [Ferulic acid-SEQ ID NO: 2-NH2]
- decrease in melanin content ([2]; 0.05 mg/mL): 36%
- decrease in melanin content compared with positive reference control (kojic acid) [2]: comparable
- trolox equivalents ([3]; 0.01 mg/mL): 59 µM
- trolox equivalents ([3]; 0.05 mg/mL): 112 µM
- trolox equivalents ([3]; 0.1 mg/mL): 113 µM
- antioxidant power compared with MAP ([3]; at this same concentration (0.05 mg/mL)): equals MAP values of trolox equivalents
- antioxidant power compared with AA-2G ([3]; concentrations >0.05 mg/mL): higher than the one of AA-2G
- reduction of DPPH ([1]; 0.05 mg/mL, 300 μM DPPH, 30 minutes): 48.3%
- reduction of DPPH ([1]; 0.1 mg/mL, 300 μM DPPH, 30 minutes): 72.9%
- reduction of DPPH ([1]; 0.5 mg/mL, 300 μM DPPH, 30 minutes): 90.6%
- DCT-TYRP2 expression (HEMn cells [4]; 0.05 mg/mL): slight tendency to downregulate
- PMEL17 expression (HEMn cells [4]; 0.05 mg/mL): slight tendency to downregulate
- VDR gene expression, fold change versus basal control (HEMn cells [4]; 0.05 mg/mL): 1.48 fold change
- decrease in tyrosinase activity ([5]; 0.05 mg/mL): 12%
- decrease in tyrosinase activity ([5]; 0.1 mg/mL): 46.5%
- decrease in tyrosinase activity ([5]; 0.5 mg/mL): 71%
- EDN1 gene expression (HEKa cells; 0.05 mg/mL): downregulation
- KITLG gene expression (HEKa cells; 0.05 mg/mL): downregulation
- NGF gene expression (HEKa cells; 0.05 mg/mL): downregulation
- POMC gene expression (HEKa cells; 0.05 mg/mL): downregulation

Molecule: Ac-Leu-His-Trp-Phe-Arg-Ala-NH2 (Ac-LHWFRA-NH2) [Ac-SEQ ID NO: 3-NH2]
- decrease in melanin content ([2]; 0.1 mg/mL): 49.3%
- decrease in melanin content compared with positive reference control (kojic acid) [2]: higher than the positive reference control
- trolox equivalents ([3]; 0.01 mg/mL): 28 µM
- trolox equivalents ([3]; 0.05 mg/mL): 59 µM
- trolox equivalents ([3]; 0.1 mg/mL): 74 µM
- C-KIT gene expression, fold change versus basal control (HEMn cells [4]; 0.1 mg/mL): −1.78 fold change
- COX-1 gene expression, fold change versus basal control (HEMn cells [4]; 0.1 mg/mL): −1.51 fold change
- DCT-TYRP2 gene expression, fold change versus basal control (HEMn cells [4]; 0.1 mg/mL): −1.40 fold change
- MC1R gene expression, fold change versus basal control (HEMn cells [4]; 0.1 mg/mL): −1.28 fold change
- MITF gene expression, fold change versus basal control (HEMn cells [4]; 0.1 mg/mL): −1.48 fold change
- MLAN-A gene expression, fold change versus basal control (HEMn cells [4]; 0.1 mg/mL): −1.88 fold change
- PMEL17 gene expression, fold change versus basal control (HEMn cells [4]; 0.1 mg/mL): −2.30 fold change
- TYR gene expression, fold change versus basal control (HEMn cells [4]; 0.1 mg/mL): −1.66 fold change
- TYRP-1 gene expression, fold change versus basal control (HEMn cells [4]; 0.1 mg/mL): −1.64 fold change
- expression of genes of the melanogenic pathway (HEMn cells [6]): tendency to downregulate gene expression was also observed
- decrease in tyrosinase activity ([5]; 0.5 mg/mL): 30.6%
- decrease in tyrosinase activity ([5]; 1 mg/mL): 58.1%
- DKK-1 gene expression (HEKa cells; 0.1 mg/mL): upregulation
- KITLG gene expression (HEKa cells; 0.1 mg/mL): downregulation
- NGF gene expression (HEKa cells; 0.1 mg/mL): downregulation
- TP53 gene expression (HEKa cells; 0.1 mg/mL): downregulation
